Measured values reported in patent US6576263B2, “Delivery systems using preformed biodegradable polymer compositions and methods” (3M Innovative Properties Company, priority 2000, dated 2003).

Key:
Type in all cases: physicochemical
[1] = Release of 5-fluorouracil from plug made with 5FU mixed with the crosslinker and albumin; details: over an 8-hr period; 5FU added with crosslinker, PBS pH 7.4, room temperature
Protocol: 136 mg of PEG-(SS)2 crosslinker was dissolved in 1 ml of a 1.04 mg/ml 5-Fluorouracil solution. This solution was then mixed into 1 ml of 30% albumin solution (see Example 2) already in a 5-ml form. The resulting hydrogel plug was removed from the form after 15 minutes and cut into three equal sized pieces (approximately 0.5 cm in thickness). Each piece was then placed into a vial and 4 ml of a PBS buffer (pH 7.4) added at sample time 0 (t0). The vials were maintained at room temperature and were shaken continuously. At each sample time, the entire content of the vial was removed and replaced with 4 ml of fresh PBS. Samples were taken at 1 hr, 2 hr, 4 hr, and 8 hr.

[2] = Release of 5FU from albumin plugs containing alginic acid with added calcium; details: over a 5-hr period; alginate/Ca/5FU in albumin plug, PBS pH 7.4
Protocol: (§1) One ml of 1.04 mg/ml 5-fluorouracil was mixed with 30 mg of alginic acid. The pH of the mixture was brought to 6.8, and 150 μl of a saturated calcium chloride/water solution was added to gel the alginate. The gel was divided into 3 approximately equal volumes and then placed into a vacuum desiccator with DRIERITE to dry for 24 hr. The resulting alginate/Ca/5FU films were ground up and mixed into the 30% albumin solution (see Example 2) just prior to being placed into the 5-ml forms and crosslinked with an equivalent volume of PEG-(SS)2 crosslinker (136 mg/ml). Each plug was placed into a separate vial, and five mls of phosphate buffered saline (PBS), at pH 7.4, was added at sample time 0 (t0). The vials were maintained at room temperature and were shaken continuously. At each sample time, the entire content of the vial was removed and replaced with 5 ml of fresh PBS. Samples were taken at 1 hr, 2 hr, 3 hr, 4 hr, 5 hr, and 24 hr.
The 5FU was analyzed as described in Example 1.

[3] = Release of 5FU from albumin plugs containing alginic acid without added calcium; details: over a 5-hr period; alginate/5FU without calcium in albumin plug, PBS pH 7.4
Protocol: as §1, with “One milliliter” for “One ml”, “and” for “and 150 μl of a saturated calcium chloride/water solution was added to gel the alginate. The gel was divided into 3 approximately equal volumes and”, “resulting alginate/5FU film was” for “resulting alginate/Ca/5FU films were”, “the 5 ml syringe” for “the 5-ml”, “and 5 ml” for “and five mls”
The 5FU was analyzed as in Example 1.

[4] = Release of 5FU from preformed, dried albumin/PEG-(SS)2 plugs reconstituted with 5FU solution; details: rehydrated albumin/PEG-(SS)2 plug, PBS pH 7.4, room temperature
Protocol: Two polymer plugs were preformed in a modified 5-milliliter (ml) poly syringe, wherein the syringe barrel was cut to form an open cylindrical receptacle, and then by mixing 0.5 ml of 29% albumin solution (obtained from American Biological Technology, Seguin, Tex. or by diafiltration (Procedure B) as described above) and 0.5 ml of 136 mg/ml PEG-(SS)2 crosslinker. After crosslinking was complete (15 minutes) the plugs were removed from the syringe and pushed out. The polymer plugs were dried under vacuum for 24 hours (hr). The plugs were reconstituted with […] of a 5FU solution (1.04 mg/ml from Sigma Chemical Co, St. Louis, Mo.) so that each plug contained a total of 187.6 micrograms (μg), or 165.5 μg of 5FU. Each plug was placed into a separate vial, and five ml of phosphate buffered saline (PBS), at pH 7.4, were added at sample time 0 (t0). The vials were maintained at room temperature and were shaken continuously. At each sample time, the entire content of the vial was removed and replaced with 5 ml of fresh PBS. Samples were taken at 0.25 hr, 0.5 hr, 1 hr, 2 hr, 3 hr, 4 hr, 5 hr, 6 hr, and 24 hr. Ana of 5FU was analyzed by high-pressure liquid chromatography, following the method of Bernatchez et al., Int. J. Pharm., 106, 161-166 (1994).

[5] = Release of cefazolin from albumin plugs made with 4-arm PEG crosslinker; details: albumin/4-arm PEG plug, PBS pH 7.4, room temperature
Protocol: Two polymer plugs were preformed from 0.5 ml of 30% albumin solution (Procedure B) and 0.5 ml of 110 mg/ml 4-arm-N-hydroxysuccinimidyl ester of poly(ethylene glycol)-succinate crosslinker (Shearwater Polymers, Inc., Huntsville, Ala.). Approximately 10 mg of sodium cefazolin (Sigma Chemical. Co., St. Louis, Mo.) was dissolved in the albumin before the crosslinker was added to form the cylindrical plugs. Each formed plug was placed into a separate vial, and 8 mls of phosphate buffered saline (PBS) at pH 7.4 was added at sample time (t0). The vials were maintained at room temperature and were shaken continuously. At each sample time, the entire content of the vial was removed and replaced with eight ml of fresh PBS. Samples were taken at 0.25, 0.5, 1, 2, 3, 4, 5, and 24 hours and approximately every 24 hours thereafter up to 144 hours.
Cefazolin was analyzed by high-pressure liquid chromatography, following the method of Liang et al, J. Chromatog. B., 656, 45-465 (1994). The column was a Waters C-18 (3.9×300 mm) column sold under the tradename MICROBONDAPAK and the column temperature was maintained at 25° C. The mobile phase consisted of 0.02M sodium phosphate buffer (pH=5.0 and methanol (77:23). The wavelength used for detection was 270 nm and the column flow rate was 1.0 ml/min.

SMILES | 5-fluorouracil released [1] | 5FU released [2] | 5FU released [3] | time period over which 5FU was released [4] | total cefazolin released ([5]; over 144 hours) | cefazolin released ([5]; over the first 5-hour time period)
O=c1[nH]cc(F)c(=O)[nH]1 [Example 5FU, 5-fluorouracil] | about 55% | about 60% | about 40% | 5 h | – | –
Cc1nnc(SCC2=C(C(=O)O)N3C(=O)[C@@H](NC(=O)Cn4cnnn4)[C@H]3SC2)s1 [cefazolin] | – | – | – | – | 95.6% | approximately 67%
